For experiment [1], the system named is methicillin-resistant Staphylococcus aureus clinical strain MRSA. Nature of the experiment: Broth microdilution assay (MIC). The experiment is classed as cell-based. The note with it: MRSA, 18 h. On the procedure: (§1) The antibacterial activity of all compounds was evaluated by determining the minimum inhibitory concentration (MIC), which is defined as the lowest concentration of the compound at which no visible bacterial growth is detected. The compounds were tested against representatives of Gram-positive and Gram-negative strains, including the ESKAPE bacterium Staphylococcus aureus ATCC25923 and the clinical isolate of methicillin-resistant S. aureus (MRSA), which are known for their pathogenicity.
(§2) The collection included five Gram-positive strains, including Staphylococcus aureus (ATCC 25923 and a methicillin-resistant Staphylococcus aureus clinical strain MRSA), Bacillus cereus ATCC 14579, Enterococcus faecalis ATCC 29212, and Listeria monocytogenes ATCC 7644; and three Gram-negative strains: Escherichia coli ATCC 25922, Pseudomonas aeruginosa ATCC 27853 and the food isolate Salmonella enterica. All microbial strains were maintained at ™80 °C for long-term storage and subcultured on Mueller-Hinton (MH) agar (Biolife, Italy) prior to broth microdilution experiments. The MH plates were stored at +4 °C for no longer than one month.
(§3) Antibacterial activity was evaluated using the Broth Microdilution Assay according to the Clinical and Laboratory Standard Institute’s Methods for Dilution Antimicrobial Susceptibility Test for Bacteria That Grow Aerobically; Approved Standard-Tenth Edition.
(§4) The stock solution of QAS (10 mg/mL) was prepared in 4% DMSO. Then, 100 µL of the tested QAS was added to the first well of the microtiter plate. Twofold serial dilutions in Muller-Hinton broth were performed over the entire plate at a concentration range of 5 mg/mL to 5 µg/mL. To each well, 50 µL of mid-exponentially grown inoculum containing 10^5 CFU/mL in Mueller-Hinton broth was added and incubated at 37 °C for 18 hours. The minimum inhibitory concentration (MIC) was determined as the lowest concentration at which no visually detectable bacterial growth occurred in the wells.

Experiment [2] relates to Salmonella enterica food isolate. The experiment can be described thus: Broth microdilution assay (MIC). The experiment is classed as cell-based. The note with it: 18 h, S. enterica food isolate. As for the experimental part:
as §1, §2, §3, §4
A general note: In broth dilution the organism is exposed to a series of concentrations in liquid medium.

For experiment [3], the system named is Escherichia coli DH5α cells. Nature of the experiment: AFM, bright-field and SYTO9/PI fluorescence microscopy of treated cells. The settings on record: E. coli DH5α. The experiment is classed as cell-based. As for the experimental part:
Optical and atomic force microscopy of the immobilized untreated and treated cells was performed to visualize the effect of Py-C12 on the bacterial membrane. For these experiments we used Escherichia coli DH5α cells because these cells allowed solid immobilization with persevered cell viability.
After making sure that the cells were properly immobilized and proliferating (a few new generations of cells were observed via optical microscopy), we started the treatment. To accelerate the process of time-dependent membrane damage, the cells were treated with the 4xMIC of Py-C12 for three hours after which the sample was rinsed with the fresh growth medium.
To estimate the percentage of cells whose membrane had been permeabilized by the treatment, the same group of cells was stained simultaneously with two fluorescent nucleic dyes, SYTO9 and propidium iodide (PI). […] When applied together, PI tends to displace SYTO9 from nucleic acid and the cells fluorescence in red. […]
AFM measurements of immobilized cells, both untreated and treated, were performed using the Nano-wizard IV system (JPK/Bruker, Berlin, Germany) operating in quantitative imaging (QI) mode with SNL-B probes (Bruker, Billerica, MA, USA). The AFM system was integrated with an IX73 inverted fluorescence optical microscope (Olympus, Tokyo, Japan). […]

In experiment [4] the test system is Bacillus cereus ATCC14579. Nature of the experiment: Broth microdilution assay (MIC). The experiment is classed as cell-based. The note with it: ATCC14579, 18 h. On the procedure:
as §1
(§5) All microbial strains were maintained at ™80 °C for long-term storage and subcultured on Mueller-Hinton (MH) agar (Biolife, Italy) prior to broth microdilution experiments. The MH plates were stored at +4 °C for no longer than one month.
as §3
(§6) The stock solution of QAS (10 mg/mL) was prepared in 4% DMSO. Then, 100 µL of the tested QAS was added to the first well of the microtiter plate. Twofold serial dilutions in Muller-Hinton broth were performed over the entire plate at a concentration range of 5 mg/mL to 5 µg/mL. […] The minimum inhibitory concentration (MIC) was determined as the lowest concentration at which no visually detectable bacterial growth occurred in the wells.

Experiment [5] concerns Listeria monocytogenes ATCC7644. Nature of the experiment: Broth microdilution assay (MIC). The settings on record: ATCC7644, 18 h. The experiment is classed as cell-based. As for the experimental part:
as §1, §5, §3, §6

For experiment [6], the system named is Escherichia coli ATCC25922. Nature of the experiment: Broth microdilution assay (MIC). The experiment is classed as cell-based. The note with it: ATCC25922, 18 h. As for the experimental part: as §1, §5, §3, §6
Experiment [7] has as its system Pseudomonas aeruginosa ATCC27853. Nature of the experiment: Broth microdilution assay (MIC). The experiment is classed as cell-based. The settings on record: ATCC27853, 18 h. As for the experimental part: as §1, §5, §3, §6
For experiment [8], the system named is Staphylococcus aureus ATCC25923. Nature of the experiment: Broth microdilution assay (MIC). The settings on record: Staphylococcus aureus, ATCC25923, 18 h. The experiment is classed as cell-based. On the procedure: as §1, §5, §3, §6
Experiment [9] has as its system Enterococcus faecalis ATCC29212. Nature of the experiment: Broth microdilution assay (MIC). The experiment is classed as cell-based. The settings on record: ATCC29212, 18 h. As for the experimental part: as §1, §5, §3, §6
The subject of the next experiment is Escherichia coli DH5α. The experiment can be described thus: MIC determination before AFM. The experiment is classed as cell-based.
Experiment [10] has as its system Tobacco mosaic virus (TMV). Nature of the experiment: Antiphytoviral activity assay (local lesions on host plant leaves). The experiment is classed as in vivo, Tobacco mosaic virus on Datura stramonium. The settings on record: Datura stramonium leaves, compound 100 µg/mL inoculated simultaneously with TMV. As for the experimental part: Leaves of Nicotiana tabacum L. cv. Samsun plants systemically infected with Tobacco mosaic virus (TMV) were ground in 0.06 mol/L phosphate buffer, pH 7.0 (1:1, w/v) to prepare virus inocula. […] Leaves of the local host Datura stramonium L. were dusted with silicon carbide (Sigma-Aldrich, St. Louis, MO, USA) before virus inoculation, and the inoculum was diluted with inoculation buffer to obtain 5–20 lesions per inoculated leaf. Experiments were performed when the experimental plants reached the 4–6 leaf stage.
The tested QAS (10 mg/mL) were dissolved in 4% DMSO and added to the virus inocula at a final concentration of 100 µg/mL. DMSO was added to the control virus inocula at the same concentration. The control and treated plants were then rubbed with the prepared inocula and the antiviral activity of the tested compounds was evaluated by the percentage inhibition of the number of local lesions on the leaves of the treated and control plants as described in [40]. The obtained data were analyzed in Excel (Microsoft Office) and significant differences were determined by t-test.

“And” between values parts separate entries of the source, which are not always exact repeats. Equal entries are not always repeated.

As a reminder, the MIC is the lowest concentration found to suppress growth. A higher MIC goes with a need for much substance. Turning to `CCCCCCCCCCCC[n+]1ccc(C=NO)cc1` [Py-C12], the MIC in experiment [1] is 310 µg/mL; in experiment [2], 630 µg/mL and 1700 µM; in [4], 1250 µg/mL; in [5] it was 630 µg/mL and 1700 µM; in [6], 630 µg/mL and 1700 µM; in experiment [7] it was 2500 µg/mL and 6730 µM. Besides, the MIC in [8] was 80 µg/mL; in experiment [9] it was 630 µg/mL and 1700 µM. Moreover, the “effect on number of bacterial cells (bright-field)” value in [3] (4xMIC, 3 h) is given as “bacteriostatic effect”. Also, the “percentage of permeabilized cells” value in experiment [3] (4 × MIC, 3 h treatment, SYTO9/PI staining, 344 cells) came to 87%. Also, the “MIC against E. coli DH5α in words” value in the experiment on Escherichia coli DH5α is on record as “equivalent to that of E. coli ATTC 25922”. Besides, the “Number of local lesions (LLN ± SD)” value in experiment [10] came out at 3.0±1.1. For the same molecule, in experiment [10] (vs control plants), the “Percentage of inhibition of local lesions” value is listed as 78.1%.

The record behind these values is article PMC9315884, “New Membrane Active Antibacterial and Antiviral Amphiphiles Derived from Heterocyclic Backbone of Pyridinium-4-Aldoxime” (Pharmaceuticals, 2022).
